Assay results published in paper PMC9308754 (Chembiochem, 2022).
Values joined by “and” are separate entries in the source; they are usually repeats but may differ in a detail not shown here. Identical values can stand only once. Like-named read-outs stand apart in the source and are kept apart here. Values belong to the compound of their own block, whether it stands above or below them.

Key:
SK‐N‐BE(2)‐C cells [1] = assay: LysoTracker assay, fluorescence microscopy; format: cell-based; details: 24 h after treatment
SK‐N‐BE(2)‐C cells [2] = details: 7.5 μM, flow cytometry; ref 16b; cited from earlier work
drHDAC10 [3] = target: T1, drHDAC10 (Danio rerio, UniProt F1QCV2); assay: Proof of substrate conversion by HPLC; format: biochemical, Danio rerio (zebrafish); details: drHDAC10 0.027 mg/mL, up to 45 min
T1 sequence (F1QCV2 2-675 limits assumed): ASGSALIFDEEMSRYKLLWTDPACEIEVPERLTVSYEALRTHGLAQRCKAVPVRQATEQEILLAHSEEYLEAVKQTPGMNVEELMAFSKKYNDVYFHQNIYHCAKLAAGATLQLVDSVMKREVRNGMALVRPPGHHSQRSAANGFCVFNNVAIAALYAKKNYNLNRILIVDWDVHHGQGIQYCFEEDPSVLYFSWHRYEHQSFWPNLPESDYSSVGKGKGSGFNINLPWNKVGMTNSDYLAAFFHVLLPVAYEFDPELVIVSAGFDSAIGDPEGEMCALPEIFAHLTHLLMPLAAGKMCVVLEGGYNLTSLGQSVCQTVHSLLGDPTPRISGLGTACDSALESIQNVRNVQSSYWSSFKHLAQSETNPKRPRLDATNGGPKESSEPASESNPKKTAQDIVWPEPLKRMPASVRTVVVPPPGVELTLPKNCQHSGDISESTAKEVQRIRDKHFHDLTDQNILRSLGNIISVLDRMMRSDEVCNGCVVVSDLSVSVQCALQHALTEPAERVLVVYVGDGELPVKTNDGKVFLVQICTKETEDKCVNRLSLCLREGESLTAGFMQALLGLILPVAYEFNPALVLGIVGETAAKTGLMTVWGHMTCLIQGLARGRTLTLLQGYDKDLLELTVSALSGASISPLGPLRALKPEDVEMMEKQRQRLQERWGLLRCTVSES

drHDAC10 [4] = target: T1, drHDAC10; assay: NDA assay drHDAC10; details: for inhibition at 0.1 µM / inhibition at 1 µM: read-out: NDA assay drHDAC10 % inhibition
acetyl Histone H3 = assay: Western blotting, acetylation of histone H3 in HL60 cells; format: cell-based; details: Western blot, 48 a/b at 10 μM
acetyl tubulin = assay: Western blotting, acetylated tubulin in HL60 cells; format: cell-based; details: Western blot, 48 a/b at 10 μM
SK‐N‐BE(2)‐C cells [5] = assay: LysoTracker assay, flow cytometry; format: cell-based; details: for increase of LysoTracker signal normalized against DMSO control: concentration differs per compound (Table 8)
hHDAC1 = hHDAC1 (Homo sapiens, UniProt Q13547); format: biochemical
hHDAC6 = target: T2, hHDAC6 (Homo sapiens, UniProt Q9UBN7); assay: hHDAC6 activity assay; format: biochemical
T2 sequence (Q9UBN7 1-1215): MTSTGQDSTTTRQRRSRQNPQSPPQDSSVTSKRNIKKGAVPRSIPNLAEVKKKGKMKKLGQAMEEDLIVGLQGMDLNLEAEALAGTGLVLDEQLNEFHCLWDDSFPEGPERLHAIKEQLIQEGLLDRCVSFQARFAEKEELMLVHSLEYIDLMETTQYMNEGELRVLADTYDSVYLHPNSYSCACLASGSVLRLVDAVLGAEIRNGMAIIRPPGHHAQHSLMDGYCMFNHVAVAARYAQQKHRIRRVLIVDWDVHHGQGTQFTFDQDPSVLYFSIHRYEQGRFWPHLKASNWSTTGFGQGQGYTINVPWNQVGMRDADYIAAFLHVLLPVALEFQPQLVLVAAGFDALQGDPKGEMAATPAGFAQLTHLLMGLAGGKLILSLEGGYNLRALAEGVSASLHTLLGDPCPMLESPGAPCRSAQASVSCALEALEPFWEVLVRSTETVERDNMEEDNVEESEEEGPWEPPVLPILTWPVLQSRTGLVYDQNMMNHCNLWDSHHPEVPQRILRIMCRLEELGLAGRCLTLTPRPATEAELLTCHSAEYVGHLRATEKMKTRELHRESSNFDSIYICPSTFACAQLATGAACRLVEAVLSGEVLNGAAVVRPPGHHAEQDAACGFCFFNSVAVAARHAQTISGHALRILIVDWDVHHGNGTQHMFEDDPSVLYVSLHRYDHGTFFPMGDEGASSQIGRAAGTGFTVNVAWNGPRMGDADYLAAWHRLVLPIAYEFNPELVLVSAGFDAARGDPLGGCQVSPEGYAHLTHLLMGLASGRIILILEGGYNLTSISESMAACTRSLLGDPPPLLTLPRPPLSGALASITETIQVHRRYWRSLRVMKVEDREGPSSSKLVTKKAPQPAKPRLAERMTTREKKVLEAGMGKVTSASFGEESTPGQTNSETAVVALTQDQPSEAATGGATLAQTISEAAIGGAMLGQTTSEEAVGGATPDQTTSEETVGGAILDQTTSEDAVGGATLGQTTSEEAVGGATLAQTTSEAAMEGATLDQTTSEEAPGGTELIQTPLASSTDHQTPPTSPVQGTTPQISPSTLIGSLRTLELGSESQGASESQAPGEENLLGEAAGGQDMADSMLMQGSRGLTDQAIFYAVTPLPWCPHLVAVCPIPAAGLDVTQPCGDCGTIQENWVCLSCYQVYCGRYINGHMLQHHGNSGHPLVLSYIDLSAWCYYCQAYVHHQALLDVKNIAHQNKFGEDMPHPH

HDAC10 [6] = target: T3, HDAC10 (Homo sapiens, UniProt Q969S8); assay: BRET assay for HDAC10; format: cell-based
T3 sequence (Q969S8 1-669): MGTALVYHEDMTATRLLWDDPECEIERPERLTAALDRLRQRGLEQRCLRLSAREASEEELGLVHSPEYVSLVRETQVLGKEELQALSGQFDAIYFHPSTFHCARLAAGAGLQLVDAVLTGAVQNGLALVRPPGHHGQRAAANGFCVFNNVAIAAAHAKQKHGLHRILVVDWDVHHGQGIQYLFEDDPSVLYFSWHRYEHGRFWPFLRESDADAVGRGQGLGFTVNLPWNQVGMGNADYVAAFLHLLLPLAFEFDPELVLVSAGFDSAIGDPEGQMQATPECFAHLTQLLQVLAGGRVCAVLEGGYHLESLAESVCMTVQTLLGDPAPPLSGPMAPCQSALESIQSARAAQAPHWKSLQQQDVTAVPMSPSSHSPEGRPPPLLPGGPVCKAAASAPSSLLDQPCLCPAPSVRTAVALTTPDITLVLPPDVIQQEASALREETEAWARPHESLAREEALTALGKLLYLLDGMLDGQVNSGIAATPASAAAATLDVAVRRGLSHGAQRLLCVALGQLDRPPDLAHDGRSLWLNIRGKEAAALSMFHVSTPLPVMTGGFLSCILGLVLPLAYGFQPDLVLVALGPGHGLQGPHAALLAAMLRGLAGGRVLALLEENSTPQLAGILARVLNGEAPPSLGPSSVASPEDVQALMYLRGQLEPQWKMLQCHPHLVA

HDAC10 [7] = target: T3, HDAC10; assay: HDAC10 binding assay
hHDAC8 = target: T4, hHDAC8 (Homo sapiens, UniProt Q9BY41); assay: biochemical
T4 sequence (Q9BY41 1-377): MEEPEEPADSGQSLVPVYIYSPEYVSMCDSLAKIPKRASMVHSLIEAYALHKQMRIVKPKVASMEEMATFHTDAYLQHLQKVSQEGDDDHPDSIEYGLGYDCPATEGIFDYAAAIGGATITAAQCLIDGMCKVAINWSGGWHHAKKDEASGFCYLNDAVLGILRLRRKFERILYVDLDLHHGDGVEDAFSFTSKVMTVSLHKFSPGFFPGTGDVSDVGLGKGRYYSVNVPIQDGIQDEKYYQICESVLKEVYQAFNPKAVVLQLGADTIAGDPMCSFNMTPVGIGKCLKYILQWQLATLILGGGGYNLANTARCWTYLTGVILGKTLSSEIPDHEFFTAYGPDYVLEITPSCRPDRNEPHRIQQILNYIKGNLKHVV

HDAC10 [8] = target: T3, HDAC10; details: TR‐FRET and BRET displacement assays; cited from earlier work
HDAC10 [9] = target: T3, HDAC10; details: read-out: BRET assay (EC50); in‐cellulo; ref 32 (Géraldy et al.); cited from earlier work
[10] = @ 1 (concentration unit not given)
[11] = @ 10 (concentration unit not given)

hHDAC1, sequence (Q13547 whole entry): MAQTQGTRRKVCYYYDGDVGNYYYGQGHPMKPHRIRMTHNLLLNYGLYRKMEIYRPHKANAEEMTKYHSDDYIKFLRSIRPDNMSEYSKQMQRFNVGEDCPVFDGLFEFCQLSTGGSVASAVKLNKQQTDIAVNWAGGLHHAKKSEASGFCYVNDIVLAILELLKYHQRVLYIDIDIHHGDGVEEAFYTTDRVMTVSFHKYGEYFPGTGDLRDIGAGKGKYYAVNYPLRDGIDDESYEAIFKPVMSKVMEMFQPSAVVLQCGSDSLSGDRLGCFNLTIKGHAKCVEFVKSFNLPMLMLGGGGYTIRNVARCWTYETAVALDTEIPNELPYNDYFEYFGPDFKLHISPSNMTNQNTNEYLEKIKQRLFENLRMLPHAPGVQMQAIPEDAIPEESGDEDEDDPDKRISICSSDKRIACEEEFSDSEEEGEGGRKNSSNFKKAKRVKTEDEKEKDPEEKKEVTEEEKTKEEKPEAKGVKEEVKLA

SMILES: O=C(CCCCCCC(=O)Nc1ccc([C@H]2O[C@@H](CSc3nc(-c4ccccc4)c(-c4ccccc4)o3)C[C@@H](c3ccc(CO)cc3)O2)cc1)NO [tubacin]
accumulation of lysosomes, LysoTracker signal by fluorescence microscopy (SK‐N‐BE(2)‐C cells [1]): No influence | LysoTracker effect (relative signal intensity as compared to control) (SK‐N‐BE(2)‐C cells [2]): 1.1 and 1.1±0.07

maximal conversion by drHDAC10 (HPLC, fluorescamine derivatization) (drHDAC10 [3]): about 50%
SMILES: CC(=O)NCCCCNCCC(=O)Nc1ccc2c(C)cc(=O)oc2c1 [Ac‐spermidine‐AMC, 3‐((4‐Acetamidobutyl)amino)‐N‐(4‐methyl‐2‐oxo‐2H‐chromen‐7‐yl)propanamide]

IC50 (drHDAC10 [4]): 2000 ± 240 nM | inhibition at 0.1 µM (drHDAC10 [4]): < 10% | inhibition at 1 µM (drHDAC10 [4]): 43%
SMILES: O=C(CCCCCCC(=O)Nc1ccccc1)NO [vorinostat]
effect on acetyl Histone H3 (class I, representative HDAC1) (acetyl Histone H3): robust hyperacetylation | effect on acetyl tubulin (HDAC6) (acetyl tubulin): robust hyperacetylation

inhibition at 0.1 µM (drHDAC10 [4]): 65% | inhibition at 1 µM (drHDAC10 [4]): > 95%
SMILES: Cc1[nH]c2ccccc2c1CCNCc1ccc(/C=C/C(=O)NO)cc1 [panobinostat]
accumulation of lysosomes, LysoTracker signal by fluorescence microscopy (SK‐N‐BE(2)‐C cells [1]): very strong response | increase of LysoTracker signal normalized against DMSO control (SK‐N‐BE(2)‐C cells [5]): up to 3 fold

inhibition at 0.1 µM (drHDAC10 [4]): < 10% | inhibition at 1 µM (drHDAC10 [4]): < 10%
SMILES: Nc1ccccc1NC(=O)c1ccc(CNc2nccc(-c3cccnc3)n2)cc1 [mocetinostat]

hHDAC1 (ZMAL) % inhibition (hHDAC1; [10]): < 10% | hHDAC1 (ZMAL) % inhibition (hHDAC1; [11]): 20% | hHDAC6 (ZMAL) % inhibition (hHDAC6; [10]): <10 % @ 10 <10 % @ 1 | hHDAC6 (ZMAL) % inhibition (hHDAC6; [11]): <10 % @ 10 <10 % @ 1 | EC50 (HDAC10 [6]): 26 nM | IC50 (HDAC10 [7]): 5 nM | IC50 (hHDAC8; hHDAC8 (FDL) IC50): 1970 ± 309 nM | IC50 (hHDAC8; inhibition of HDAC8): ~1000 nM
SMILES: O=C(NO)C1CCN(CCNCc2ccccc2)CC1 [48 a, 1‐(2‐(Benzylamino)ethyl)‐N‐hydroxypiperidine‐4‐carboxamide]
effect on acetyl Histone H3 (class I, representative HDAC1) (acetyl Histone H3): no increase | effect on acetyl tubulin (HDAC6) (acetyl tubulin): no increase

IC50 (drHDAC10 [4]): 134 ± 26 nM | inhibition at 0.1 µM (drHDAC10 [4]): 45% | inhibition at 1 µM (drHDAC10 [4]): > 95%
SMILES: CN(C)Cc1c(C(=O)NCCOc2ccc(C(=O)NO)cc2)oc2ccccc12 [abexinostat]
accumulation of lysosomes, LysoTracker signal by fluorescence microscopy (SK‐N‐BE(2)‐C cells [1]): very strong response | increase of LysoTracker signal normalized against DMSO control (SK‐N‐BE(2)‐C cells [5]): up to 3 fold

IC50 (drHDAC10 [4]): 30 ± 3 nM | inhibition at 0.1 µM (drHDAC10 [4]): 82% | inhibition at 1 µM (drHDAC10 [4]): > 95%
SMILES: CN1CCc2c(c3ccccc3n2Cc2ccc(C(=O)NO)cc2)C1 [tubastatin A]
HDAC10 binding in displacement assays (HDAC10 [8]): bound strongly

IC50 (drHDAC10 [4]): 50 nM | inhibition at 0.1 µM (drHDAC10 [4]): 60% | inhibition at 1 µM (drHDAC10 [4]): 91%
SMILES: Cn1cc(CNCC2CCN(c3ncc(C(=O)NO)cn3)CC2)c2ccccc21 [quisinostat]
EC50 (HDAC10 [9]): 40 nM | accumulation of lysosomes, LysoTracker signal by fluorescence microscopy (SK‐N‐BE(2)‐C cells [1]): very strong response | increase of LysoTracker signal normalized against DMSO control (SK‐N‐BE(2)‐C cells [5]): up to 3 fold

hHDAC1 (ZMAL) % inhibition (hHDAC1; [10]): < 10% | hHDAC1 (ZMAL) % inhibition (hHDAC1; [11]): 11% | hHDAC6 (ZMAL) % inhibition (hHDAC6; [10]): < 10% | hHDAC6 (ZMAL) % inhibition (hHDAC6; [11]): 11% | EC50 (HDAC10 [6]): 10 nM | IC50 (HDAC10 [7]): 2 nM | IC50 (hHDAC8; inhibition of HDAC8): ~1000 nM
SMILES: O=C(NO)C1CCN(CCNCc2ccc(Br)cc2)CC1 [48 b, 1‐(2‐((4‐Bromobenzyl)amino)ethyl)‐N‐hydroxypiperidine‐4‐carboxamide]
effect on acetyl Histone H3 (class I, representative HDAC1) (acetyl Histone H3): no increase | LysoTracker effect (relative signal intensity as compared to control) (SK‐N‐BE(2)‐C cells [5]; 10 μM): 1.07±0.15 | LysoTracker effect (relative signal intensity as compared to control) (SK‐N‐BE(2)‐C cells [5]; 20.0 μM): 1.04±0.05 | increase of LysoTracker signal normalized against DMSO control (SK‐N‐BE(2)‐C cells [5]): did not show an increase in signal | effect on acetyl tubulin (HDAC6) (acetyl tubulin): no increase

inhibition at 0.1 µM (drHDAC10 [4]): 26% | inhibition at 1 µM (drHDAC10 [4]): 64%
SMILES: CCCCOc1ccc(CC(=O)NO)cc1 [bufexamac]
